Earlier results in patent US8512957B2, “Toxicity typing using liver stem cells” (Vistagen Therapeutics, Inc., priority 2000, dated 2013).

Columns and labels:
[1] = system: liver; conditions: known toxicity of the drug, stated in words
[2] = known toxicity class, printed in first toxicity column (Dev = developmental)

SMILES | liver toxicity [1] | TOXICITIES EV [2]
Cc1c(C)c2c(c(C)c1O)CCC(C)(COc1ccc(CC3SC(=O)NC3=O)cc1)O2 (stereo not shown) [troglitazone] | rare but severe liver toxicity | 
CN(CCOc1ccc(CC2SC(=O)NC2=O)cc1)c1ccccn1 (stereo not shown) [rosiglitazone] |  | tc
CCC(=O)O[C@H]1[C@H](O[C@@H]2[C@@H](C)[C@H](O[C@H]3C[C@@](C)(OC)[C@@H](O)[C@H](C)O3)[C@@H](C)C(=O)O[C@H](CC)[C@@](C)(O)[C@H](O)[C@@H](C)C(=O)[C@H](C)C[C@@]2(C)O)O[C@H](C)C[C@@H]1N(C)C [erythromycin estolate] | known liver toxicity | 
CCOC(=O)C(C)(C)Oc1ccc(Cl)cc1 [clofibrate] |  | tc
